Assay results taken from patent publication US6831079B1, “Vasopressin agonist formulation and process” (American Cyanamid Company, priority 1999, dated 2004).

Assays:
Vasopressin V2 = Vasopressin V2 (Rattus norvegicus, UniProt Q00788); assay: Vasopressin V2 agonist effects in normal conscious water-loaded rats; assay type: in vivo; parameters: from tissue; host or cells: whole living Sprague-Dawley rat; the receptor is the animal's own (renal, by own knowledge); conditions: Sprague-Dawley (CD) rats; for Osmolality (% Increase): change in osmolality as percent of control; for Urine Volume (% decrease): vs. control
Text: Vasopressin V2 Agonist Effects of Test Compounds in Normal Conscious Water-loaded Rats
Male or female normotensive Sprague-Dawley rats (Charles River Laboratories, Inc., Kingston, N.Y.) of 350-500 g body weight were supplied with standard rodent diet (Purina Rodent Lab. Chow 5001) and water ad libitum. On the day of test, rats were placed individually into metabolic cages equipped with devices to separate the feces from the urine and containers for collection of urine. […] The vehicle used was 20% dimethylsulfoxide (DMSO) in 2.5% preboiled corn starch. Thirty minutes after dosing the test compound, rats were gavaged with water at 30 ml/kg into the stomach using a feeding needle. During the test, rats were not provided with water or food. Urine was collected for four hours after dosing of the test compound. At the end of four hours, urine volume was measured. Urinary osmolality was determined using a Fiske One-Ten Osmometer (Fiske Associates, Norwood, Mass., 02062) or an Advanced CRYOMATIC Osmometer, Model 3C.2 (Advanced Instruments, Norwood, Mass.). Determinations of Na^+, K^+ and Cl^− ion were carried out using ion specific electrodes in a Beckman SYNCHRON EL-ISE Electrolyte System analyzer. The urinary osmolality should increase proportionally. In the screening test, two rats were used for each compound. If the difference in the urine volume of the two rats was greater than 50%, a third rat was used.

[1] = 10 mg/kg oral, urine collected four hours

Chain of Vasopressin V2 (Q00788 whole entry): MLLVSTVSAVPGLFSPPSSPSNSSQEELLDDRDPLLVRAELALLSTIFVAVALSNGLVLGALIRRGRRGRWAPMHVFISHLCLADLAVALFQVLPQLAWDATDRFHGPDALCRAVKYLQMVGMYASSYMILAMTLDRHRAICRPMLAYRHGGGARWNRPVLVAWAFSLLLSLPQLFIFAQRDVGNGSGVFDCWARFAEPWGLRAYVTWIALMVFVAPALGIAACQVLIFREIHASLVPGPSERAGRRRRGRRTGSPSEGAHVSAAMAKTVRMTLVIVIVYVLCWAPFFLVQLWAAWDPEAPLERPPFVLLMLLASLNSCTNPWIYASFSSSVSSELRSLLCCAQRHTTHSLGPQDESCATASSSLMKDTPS

Compound	melting point [°C]	Osmolality (% Increase) (Vasopressin V2; 1 mg/kg)	Urine Volume (% decrease) (Vasopressin V2; 1 mg/kg)	Osmolality (% Increase) (Vasopressin V2; 10 mg/kg oral) [%]	Urine Volume (% decrease) (Vasopressin V2; [1]) [%]
O=C(c1ccc(-c2ncn[nH]2)cc1)N1Cc2cccn2Cc2ccccc21 [Example 48, (5H,11H-Pyrrolo[2,1-c][1,4]benzodiazepin-10-yl)-[4-(2H-[1,2,4]triazol-3-yl)-phenyl]-methanone]	225 to 227				
Cc1ccn(-c2ccc(C(=O)N3Cc4cccn4Cc4ccccc43)c(C(F)(F)F)c2)n1 [Example 2, [4-(3-Methyl-pyrazol-1-yl)-2-trifluoromethyl-phenyl](5H,11H-pyrrolo[2,1-c]-[1,4]benzodiazepin-10-yl)-methanone]		306% (1 mg/kg)	80% (1 mg/kg)		
Cn1ccc(-c2ccc(C(=O)N3Cc4cccn4Cc4ccccc43)cc2)n1 [Example 25, [4-(1-Methyl-1H-pyrazolyl-3-yl)-phenyl]-(5H,11H-pyrrolo[2,1-c][1,4]-benzodiazepin-10-yl)-methanone]				979	87
Cc1ccn(-c2ccc(C(=O)N3Cc4cccn4Cc4ccccc43)c(Br)c2)n1 [Example 90]				413	61
O=C(c1ccc(-c2ccn(C(=O)c3ccccc3-c3ccc(C(F)(F)F)cc3)n2)cc1)N1Cc2cccn2Cc2ccccc21 [Example 41, {4-[1-(4′-Trifluoromethyl-biphenyl-2-carbonyl)-1H-pyrazol-3-yl]-phenyl}-(5H,11H-pyrrolo[2,1-c][1,4]benzodiazepin-10-yl)-methanone]				240	69
Cc1ccnn1-c1ccc(C(=O)N2Cc3cccn3Cc3ccccc32)c(Cl)c1 [Example 9B]				168	21
O=C(c1ccc(-n2cccn2)cc1)N1Cc2cccn2Cc2ccccc21 [Example 58, [4-(Pyrazol-1-yl)-phenyl]-(5H,11H-pyrrolo[2,1-c][1,4]benzodiazepin-10-yl)-methanone]				324	49
O=C(c1ccc(-n2cccn2)cc1C(F)(F)F)N1Cc2cccn2Cc2ccccc21 [Example 4, (4-Pyrazol-1-yl-2-trifluoromethyl-phenyl)-(5H,11H-pyrrolo[2,1-c][1,4]benzodiazepin-10-yl)-methanone]				225	57
COc1cc(-n2ccc(C)n2)ccc1C(=O)N1Cc2cccn2Cc2ccccc21 [Example 107, [2-Methoxy-4-(3-methyl-pyrazol-1-yl)-phenyl](5H,11H-pyrrolo[2,1-c][1,4]-benzodiazepin-10-yl) Methanone]				125	31
Cc1ccn(-c2ccc(C(=O)N3Cc4ccnn4Cc4ccccc43)c(C(F)(F)F)c2)n1 [Example 95, [4-(3-Methylpyrazol-1-yl)-2-trifluoromethylphenyl]-(5H,11H-pyrazolo[5,1-c]-[1,4]benzodiazepin-10-yl)-methanone]				300	68
O=C(c1ccc(-c2ccn(C(=O)Cc3ccc(Cl)cc3Cl)n2)cc1)N1Cc2cccn2Cc2ccccc21 [Example 39, 2-(2,4-Dichloro-phenyl)-1-{3-[4-(5H,11H-pyrrolo[2,1-c][1,4]benzodiazepine-10-carbonyl)-phenyl]-pyrazol-1-yl}-ethanone]				253	69
CCC(=O)n1ccc(-c2ccc(C(=O)N3Cc4cccn4Cc4ccccc43)cc2)n1 [Example 31, 1-{3-[4-(5H,11H-Pyrrolo[2,1-c][1,4]benzodiazepine-10-carbonyl)-phenyl]-pyrazol-1-yl}-propan-1-one]				298	72
CC(=O)c1ccc(C(=O)N2Cc3cccn3Cc3ccccc32)cc1 [Example 22, 1-[4-(5H,11H-Pyrrolo[2,1-c][1,4]benzodiazepine-10-carbonyl)-phenyl]-ethanone]				322	80
N#Cc1ccc(C(=O)N2Cc3cccn3Cc3ccccc32)c(Cl)c1 [Example 77, 3-Chloro-4-(5H,11H-pyrrolo[2,1-c][1,4]benzodiazepine-10-carbonyl)-benzonitrile]				90	13
Cc1n[nH]c(-c2ccc(C(=O)N3Cc4cccn4Cc4ccccc43)c(Cl)c2)n1 [Example 81, [2-Choro-4-(5-methyl-2H-[1,2,4]triazol-3-yl)phenyl]-(5H,11H-pyrrolo[2,1-c][1,4]benzodiazepine-10-carbonyl)-methanone]				490	82
CCn1ccc(-c2ccc(C(=O)N3Cc4cccn4Cc4ccccc43)cc2)n1 [Example 26, [4-(1-Ethyl-1H-pyrazol-3-yl)-phenyl]-(5H,11H-pyrrolo[2,1-c][1,4]-benzodiazepin-10-yl)-methanone]				279	54
[2-Chloro-4-(2-methyl-2H-[1,2,4]triazol-3-yl)-phenyl]-(5H,11H-pyrrolo [2,1-c][1,4]benzodiazepin-10-carbonyl)-methanone [Example 84]				291	56
O=C(c1ccc(-c2ccn(C(=O)c3ccccc3-c3ccccc3)n2)cc1)N1Cc2cccn2Cc2ccccc21 [Example 40, {4-[1-(Biphenyl-2-carbonyl)-1H-pyrazol-3-yl]-phenyl}-(5H,11H-pyrrolo[2,1-c][1,4]benzodiazepin-10-yl)-methanone]				183	46
Cn1nccc1-c1ccc(C(=O)N2Cc3ccnn3Cc3ccccc32)cc1 [Example 120B, [4-(2-Methyl-1H-pyrazol-3-yl)phenyl](4H,1OH-pyrazolo[5,1c][1,4]-benzodiazepin-5-yl)methanone]				272	67
Cc1cnn(-c2ccc(C(=O)N3Cc4cccn4Cc4ccccc43)c(C(F)(F)F)c2)c1 [Example 3, [4-(4-Methyl-pyrazol-1-yl)-2-trifluoromethyl-phenyl]-(5H,11H-pyrrolo[2,1-c][1,4]benzodiazepin-10-yl)-methanone]				240	58
Cc1cn(-c2ccc(C(=O)N3Cc4cccn4Cc4ccccc43)c(C(F)(F)F)c2)cn1 [Example 6, [4-(4-Methyl-imidazol-1-yl)-2-trifluoromethyl-phenyl]-(5H,11H-pyrrolo[2,1-c][1,4]benzodiazepin-10-yl)-methanone]				270	58
Cc1ccn(-c2ncc(C(=O)N3Cc4cccn4Cc4ccccc43)c(C(F)(F)F)n2)n1 [Example 20, [2-(3-Methyl-pyrazol-1-yl)-4-trifluoromethyl-pyrimidin-5-yl]-(5H,11H-pyrrolo[2,1-c][1,4]benzodiazepin-10-yl)-methanone]		152% (1 mg/kg)	25% (1 mg/kg)		
